Test [1] concerns MT4. Nature of the test: Inhibition of the spread of HIV infection (K-60C) in MT-4 human T-lymphoid cells. Format: functional. The following applies: read-out: CIC95.
The subject of test [2] is MT4. Nature of the test: Inhibition of the spread of HIV infection wild type(WT) in MT-4 human T-lymphoid cells. Type of test: functional. The following applies: read-out: CIC95.
For test [3], the system named is MT4. Description: Inhibition of the spread of HIV infection (V-18C) in MT-4 human T-lymphoid cells. Format: functional. The following applies: read-out: CIC95.
Test [4] deals with T1, Human immunodeficiency virus type 1 protease (Human immunodeficiency virus 1, UniProt Q72874). Nature of the test: Inhibition of HIV protease of HIV K-60C mutant strain.
In test [5] the target is T1, Human immunodeficiency virus type 1 protease. Description: Inhibition of HIV protease of HIV V-18C mutant strain.
Test [6] has the same target. Description: Inhibition of wild type HIV protease.

Where only a bound is given, the exact number is not on record here.

For the molecule `Cc1noc(C)c1CNC(=O)[C@H]1N(C(=O)[C@@H](O)C[C@@H](Cc2ccccc2)C(=O)N[C@H]2c3ccccc3OC[C@H]2O)CSC1(C)C`, the IC95 was found to be 250 nM in test [1], 156 nM in test [2] and 62 nM in test [3].
By IC50 is commonly meant the concentration needed to halve the response being measured. A high value points to weaker potency in that assay. `Cc1cccc(C)c1CNC(=O)[C@H]1N(C(=O)[C@@H](O)C[C@@H](Cc2ccccc2)C(=O)N[C@H]2c3ccccc3C[C@H]2O)CSC1(C)C`: the figures for the IC95 in test [1], in test [2] and in test [3] were 125 nM, 31 nM and 31 nM, respectively. The IC50 in test [4] was determined as 0.062 nM; in test [5] it was 0.062 nM; in test [6], 0.04 nM.
For the molecule `Cc1cccc(C)c1CNC(=O)[C@H]1N(C(=O)[C@@H](O)C[C@@H](Cc2ccccc2)C(=O)N[C@H]2c3ccccc3OC[C@H]2O)CSC1(C)C`, the IC95 in test [1] stood at 500 nM; in test [2], 47 nM; in test [3] it was 62 nM.
Turning to `Cc1ccnc(C)c1CNC(=O)[C@H]1N(C(=O)[C@@H](O)C[C@@H](Cc2ccccc2)C(=O)N[C@H]2c3ccccc3OC[C@H]2O)CSC1(C)C`, the IC95 worked out at 250 nM in test [1], 187 nM in test [2] and 125 nM in test [3].
On to `Cc1nsc(C)c1CNC(=O)[C@H]1N(C(=O)[C@@H](O)C[C@@H](Cc2ccccc2)C(=O)N[C@H]2c3ccccc3OC[C@H]2O)CSC1(C)C`, for which the IC95 in test [1] stood at 250 nM; in test [2], 16 nM; in test [3], 31 nM.
Taken in the same sequence, the figures for `CC1(C)SCN(C(=O)[C@@H](O)C[C@@H](Cc2ccccc2)C(=O)N[C@H]2c3ccccc3OC[C@H]2O)[C@@H]1C(=O)NCc1c(Cl)cccc1Cl` were 250 nM, less than 8 nM and 16 nM.
For `Cc1ccccc1CNC(=O)[C@H]1N(C(=O)[C@@H](O)C[C@@H](Cc2ccccc2)C(=O)N[C@H]2c3ccccc3OC[C@H]2O)CSC1(C)C`, in that order: 125 nM, 19 nM and 41 nM.
For the molecule `Cc1cccc(Cl)c1CNC(=O)[C@H]1N(C(=O)[C@@H](O)C[C@@H](Cc2ccccc2)C(=O)N[C@H]2c3ccccc3OC[C@H]2O)CSC1(C)C`, the IC95 in test [1] is 46 nM; in test [2], 31 nM; in test [3], 23 nM.
With `CC1(C)SCN(C(=O)[C@@H](O)C[C@@H](Cc2ccccc2)C(=O)N[C@H]2c3ccccc3OC[C@H]2O)[C@@H]1C(=O)NCc1c(F)cccc1F`, the IC95 was found to be 250 nM in test [1], 23 nM in test [2] and 62 nM in test [3].
Taken in the same sequence, the figures for `Cc1cccc(C)c1CNC(=O)[C@H]1N(C(=O)[C@H](O)C[C@@H](Cc2ccccc2)C(=O)N[C@H]2c3ccccc3OC[C@H]2O)CSC1(C)C` were 70 nM, 15 nM and 15 nM.
Regarding `Cc1ccccc1CNC(=O)[C@H]1N(C[C@@H](O)C[C@@H](Cc2ccccc2)C(=O)N[C@H]2c3ccccc3OC[C@H]2O)CSC1(C)C`, the IC95 was greater than 1000 nM in test [1], 250 nM in test [2] and 1000 nM in test [3]. Besides, the IC50 in test [4] was found to be 7.9 nM; in test [5] it was 8.8 nM; in test [6] it was 0.52 nM.
Consider `CC(C)(C)NC(=O)[C@@H]1CN(Cc2cccnc2)CCN1C[C@@H](O)C[C@@H](Cc1ccccc1)C(=O)N[C@H]1c2ccccc2C[C@H]1O`, for which the IC95 in test [1] came out at 1000 nM; in test [2] it was 45 nM; in test [3], 890 nM.

The values above are taken from ChEMBL document CHEMBL1136401 (Bioorg Med Chem Lett, 2003).
